What all share (assay): kinase profiling panel
What all share (type): biochemical
Holding throughout (conditions): read-out: % Activity Remaining

Test [1] has as its target RSK2 (Homo sapiens, UniProt P51812). The source says:
(§1) Protein kinase profiling against a Dundee panel of 140 protein kinases was undertaken at the International Centre for Protein Kinase Profiling. The result for each kinase was presented as a mean kinase activity of the reaction taken in triplicate relative to a control sample treated with DMSO. Assay conditions and abbreviations are available at http://www.kinase-screen.mrc.ac.uk.

Test [2] addresses MAPKAP-K3 (Homo sapiens, UniProt Q16644).
Source text: as §1

Test [3] has as its target Lck (Homo sapiens, UniProt P06239).
Source text: as §1

Test [4] has as its target T1, TTK (Homo sapiens, UniProt P33981).
T1 sequence (P33981 1-857): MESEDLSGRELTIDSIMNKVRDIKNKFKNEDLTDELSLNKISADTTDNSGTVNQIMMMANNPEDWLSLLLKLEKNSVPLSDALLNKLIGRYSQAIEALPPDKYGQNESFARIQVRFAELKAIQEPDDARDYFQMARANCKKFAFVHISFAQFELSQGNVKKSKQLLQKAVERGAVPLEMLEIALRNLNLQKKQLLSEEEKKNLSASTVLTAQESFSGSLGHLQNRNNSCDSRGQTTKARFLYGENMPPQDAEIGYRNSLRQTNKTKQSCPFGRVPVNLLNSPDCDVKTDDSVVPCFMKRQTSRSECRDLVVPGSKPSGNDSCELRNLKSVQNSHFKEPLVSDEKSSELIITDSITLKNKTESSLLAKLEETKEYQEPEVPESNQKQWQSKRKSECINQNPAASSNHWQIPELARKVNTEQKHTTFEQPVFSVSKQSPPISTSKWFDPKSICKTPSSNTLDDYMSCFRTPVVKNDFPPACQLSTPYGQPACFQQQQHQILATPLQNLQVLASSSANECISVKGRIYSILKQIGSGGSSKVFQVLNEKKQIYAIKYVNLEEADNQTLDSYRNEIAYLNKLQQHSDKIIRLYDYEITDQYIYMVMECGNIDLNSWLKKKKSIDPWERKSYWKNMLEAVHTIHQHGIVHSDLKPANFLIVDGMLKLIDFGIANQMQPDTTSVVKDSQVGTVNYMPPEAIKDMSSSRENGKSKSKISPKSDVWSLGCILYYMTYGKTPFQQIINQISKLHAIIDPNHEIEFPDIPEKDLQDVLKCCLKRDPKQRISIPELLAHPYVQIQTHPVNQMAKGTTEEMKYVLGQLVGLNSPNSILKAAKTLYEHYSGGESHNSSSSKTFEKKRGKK
Source text: as §1

Test [5] deals with PRK2 (Homo sapiens, UniProt Q16513).
Source text: as §1

In test [6] the target is IGF-1R (Homo sapiens, UniProt P08069).
Source text: as §1

The target of test [7] is NEK6 (Homo sapiens, UniProt Q9HC98).
Source text: as §1

Test [8] concerns the target ABL (Homo sapiens, UniProt P00519).
Source text: as §1

Test [9] deals with MARK2 (Homo sapiens, UniProt Q7KZI7).
Source text: as §1

The target in test [10] is T2, NUAK1 (Homo sapiens, UniProt O60285).
T2 sequence (O60285 1-661): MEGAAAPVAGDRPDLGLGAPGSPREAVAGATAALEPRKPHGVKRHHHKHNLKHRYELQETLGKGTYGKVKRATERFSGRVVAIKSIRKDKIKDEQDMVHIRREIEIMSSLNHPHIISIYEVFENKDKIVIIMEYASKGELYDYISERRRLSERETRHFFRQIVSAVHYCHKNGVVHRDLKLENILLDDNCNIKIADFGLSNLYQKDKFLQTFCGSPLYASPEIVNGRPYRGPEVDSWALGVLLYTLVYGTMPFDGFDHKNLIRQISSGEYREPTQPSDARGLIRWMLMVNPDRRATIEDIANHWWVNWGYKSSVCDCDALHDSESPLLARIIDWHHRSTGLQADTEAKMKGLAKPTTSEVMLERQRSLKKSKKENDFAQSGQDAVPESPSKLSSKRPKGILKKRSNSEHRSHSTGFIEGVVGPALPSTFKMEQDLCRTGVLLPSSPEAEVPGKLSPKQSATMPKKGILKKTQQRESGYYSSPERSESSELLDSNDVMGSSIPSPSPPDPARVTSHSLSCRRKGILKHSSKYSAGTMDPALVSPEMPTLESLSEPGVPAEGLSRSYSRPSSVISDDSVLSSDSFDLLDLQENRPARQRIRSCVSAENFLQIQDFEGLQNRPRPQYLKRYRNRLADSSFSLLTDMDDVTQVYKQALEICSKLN
Source text: as §1

Test [11] has as its target BRK (Homo sapiens, UniProt Q13882).
Source text: as §1

The target in test [12] is SRPK1 (Homo sapiens, UniProt Q96SB4).
Source text: as §1

Test [13] deals with IRAK1 (Homo sapiens, UniProt P51617).
Source text: as §1

For test [14], the target named is PAK5 (Homo sapiens, UniProt Q9P286).
Source text: as §1

The target in test [15] is PAK2 (Homo sapiens, UniProt Q13177).
Source text: as §1

For test [16], the target named is IR (Homo sapiens, UniProt P06213).
Source text: as §1

Test [17] deals with Src (Homo sapiens, UniProt P12931).
Source text: as §1

For test [18], the target named is EPH-A4 (Homo sapiens, UniProt P54764).
Source text: as §1

Test [19] concerns the target MLK1 (Homo sapiens, UniProt P80192).
Source text: as §1

Where two headings read alike, the source gives them in different places.

Chain of SRPK1 (Q96SB4 whole entry): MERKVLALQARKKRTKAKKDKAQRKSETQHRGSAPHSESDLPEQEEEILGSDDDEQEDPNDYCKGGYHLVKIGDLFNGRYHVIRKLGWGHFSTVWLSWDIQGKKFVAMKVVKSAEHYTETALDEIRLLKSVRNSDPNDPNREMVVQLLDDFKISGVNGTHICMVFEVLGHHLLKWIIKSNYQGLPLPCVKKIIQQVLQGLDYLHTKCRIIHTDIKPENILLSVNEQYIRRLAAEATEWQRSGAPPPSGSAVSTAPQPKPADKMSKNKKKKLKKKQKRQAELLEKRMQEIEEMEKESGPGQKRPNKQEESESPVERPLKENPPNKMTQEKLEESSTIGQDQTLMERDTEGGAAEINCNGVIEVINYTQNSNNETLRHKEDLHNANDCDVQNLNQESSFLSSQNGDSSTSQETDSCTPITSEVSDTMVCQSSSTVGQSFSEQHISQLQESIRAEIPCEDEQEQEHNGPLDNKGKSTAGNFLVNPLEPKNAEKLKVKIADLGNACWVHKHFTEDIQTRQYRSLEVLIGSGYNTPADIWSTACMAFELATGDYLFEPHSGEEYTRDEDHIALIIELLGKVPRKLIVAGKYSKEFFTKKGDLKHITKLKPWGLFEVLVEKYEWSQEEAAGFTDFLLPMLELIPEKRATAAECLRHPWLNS
Chain of Src (P12931 whole entry): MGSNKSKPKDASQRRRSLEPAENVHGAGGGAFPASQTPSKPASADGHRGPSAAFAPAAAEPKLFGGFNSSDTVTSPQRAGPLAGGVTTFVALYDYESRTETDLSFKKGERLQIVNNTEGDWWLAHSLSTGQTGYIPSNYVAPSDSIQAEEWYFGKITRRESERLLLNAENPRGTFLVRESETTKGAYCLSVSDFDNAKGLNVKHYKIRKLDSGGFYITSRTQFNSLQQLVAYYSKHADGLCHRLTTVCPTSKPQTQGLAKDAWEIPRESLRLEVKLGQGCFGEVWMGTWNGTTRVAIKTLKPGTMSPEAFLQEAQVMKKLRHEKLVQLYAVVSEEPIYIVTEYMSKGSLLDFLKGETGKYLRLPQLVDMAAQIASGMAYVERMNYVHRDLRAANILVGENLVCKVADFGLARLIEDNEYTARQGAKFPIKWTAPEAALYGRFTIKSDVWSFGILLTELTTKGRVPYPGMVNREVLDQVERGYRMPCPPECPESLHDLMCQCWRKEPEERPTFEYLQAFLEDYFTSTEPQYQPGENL
Chain of MARK2 (Q7KZI7 whole entry): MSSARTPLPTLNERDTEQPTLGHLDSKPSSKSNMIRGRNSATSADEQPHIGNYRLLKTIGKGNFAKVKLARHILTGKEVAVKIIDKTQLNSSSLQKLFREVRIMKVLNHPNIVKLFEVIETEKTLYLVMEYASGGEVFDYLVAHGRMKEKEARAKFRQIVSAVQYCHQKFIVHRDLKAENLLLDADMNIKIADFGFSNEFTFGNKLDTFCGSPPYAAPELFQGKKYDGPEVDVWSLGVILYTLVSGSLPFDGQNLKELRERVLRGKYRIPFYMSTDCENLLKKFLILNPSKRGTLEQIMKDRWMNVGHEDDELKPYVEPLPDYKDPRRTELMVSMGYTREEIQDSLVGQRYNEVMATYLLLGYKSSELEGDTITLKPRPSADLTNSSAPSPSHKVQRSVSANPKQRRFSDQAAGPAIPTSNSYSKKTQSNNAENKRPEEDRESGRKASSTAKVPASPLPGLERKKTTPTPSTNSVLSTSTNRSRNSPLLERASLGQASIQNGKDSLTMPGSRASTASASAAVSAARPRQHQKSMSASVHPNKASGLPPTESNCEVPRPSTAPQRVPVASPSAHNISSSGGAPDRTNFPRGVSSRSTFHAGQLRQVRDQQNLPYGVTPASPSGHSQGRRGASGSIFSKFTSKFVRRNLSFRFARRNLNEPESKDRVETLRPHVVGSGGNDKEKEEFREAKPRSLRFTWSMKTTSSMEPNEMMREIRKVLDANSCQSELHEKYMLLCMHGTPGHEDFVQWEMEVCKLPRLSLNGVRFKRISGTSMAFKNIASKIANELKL
Chain of RSK2 (P51812 whole entry): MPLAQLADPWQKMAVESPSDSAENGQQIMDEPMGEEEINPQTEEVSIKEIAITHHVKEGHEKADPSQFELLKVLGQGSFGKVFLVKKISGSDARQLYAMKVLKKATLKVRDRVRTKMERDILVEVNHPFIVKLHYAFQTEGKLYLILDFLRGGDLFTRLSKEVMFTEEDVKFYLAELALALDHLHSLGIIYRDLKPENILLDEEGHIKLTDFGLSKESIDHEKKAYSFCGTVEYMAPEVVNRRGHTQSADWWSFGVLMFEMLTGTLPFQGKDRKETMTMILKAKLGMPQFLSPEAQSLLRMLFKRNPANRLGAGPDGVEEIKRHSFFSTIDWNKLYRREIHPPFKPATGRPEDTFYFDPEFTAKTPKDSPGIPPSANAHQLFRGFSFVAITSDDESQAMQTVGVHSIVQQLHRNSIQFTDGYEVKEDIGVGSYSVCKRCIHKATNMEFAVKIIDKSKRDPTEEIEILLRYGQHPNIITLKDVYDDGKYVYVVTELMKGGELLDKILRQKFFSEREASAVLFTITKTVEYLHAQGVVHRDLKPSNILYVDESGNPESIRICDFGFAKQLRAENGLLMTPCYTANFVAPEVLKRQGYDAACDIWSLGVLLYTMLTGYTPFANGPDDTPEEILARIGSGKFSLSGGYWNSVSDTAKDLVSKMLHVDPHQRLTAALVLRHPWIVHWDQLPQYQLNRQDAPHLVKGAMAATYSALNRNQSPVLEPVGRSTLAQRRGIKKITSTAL
Chain of BRK (Q13882 whole entry): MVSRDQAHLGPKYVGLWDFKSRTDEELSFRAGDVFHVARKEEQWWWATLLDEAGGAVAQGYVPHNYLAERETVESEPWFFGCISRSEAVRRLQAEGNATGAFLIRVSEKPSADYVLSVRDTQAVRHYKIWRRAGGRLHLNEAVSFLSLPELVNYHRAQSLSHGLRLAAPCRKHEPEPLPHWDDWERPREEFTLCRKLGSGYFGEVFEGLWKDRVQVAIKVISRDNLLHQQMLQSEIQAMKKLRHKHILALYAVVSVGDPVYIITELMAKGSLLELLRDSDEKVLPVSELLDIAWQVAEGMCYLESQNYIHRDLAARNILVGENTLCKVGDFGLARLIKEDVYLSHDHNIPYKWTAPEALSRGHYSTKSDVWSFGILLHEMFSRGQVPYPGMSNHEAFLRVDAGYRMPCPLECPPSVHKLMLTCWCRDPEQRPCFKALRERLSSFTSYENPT
Chain of ABL (P00519 whole entry): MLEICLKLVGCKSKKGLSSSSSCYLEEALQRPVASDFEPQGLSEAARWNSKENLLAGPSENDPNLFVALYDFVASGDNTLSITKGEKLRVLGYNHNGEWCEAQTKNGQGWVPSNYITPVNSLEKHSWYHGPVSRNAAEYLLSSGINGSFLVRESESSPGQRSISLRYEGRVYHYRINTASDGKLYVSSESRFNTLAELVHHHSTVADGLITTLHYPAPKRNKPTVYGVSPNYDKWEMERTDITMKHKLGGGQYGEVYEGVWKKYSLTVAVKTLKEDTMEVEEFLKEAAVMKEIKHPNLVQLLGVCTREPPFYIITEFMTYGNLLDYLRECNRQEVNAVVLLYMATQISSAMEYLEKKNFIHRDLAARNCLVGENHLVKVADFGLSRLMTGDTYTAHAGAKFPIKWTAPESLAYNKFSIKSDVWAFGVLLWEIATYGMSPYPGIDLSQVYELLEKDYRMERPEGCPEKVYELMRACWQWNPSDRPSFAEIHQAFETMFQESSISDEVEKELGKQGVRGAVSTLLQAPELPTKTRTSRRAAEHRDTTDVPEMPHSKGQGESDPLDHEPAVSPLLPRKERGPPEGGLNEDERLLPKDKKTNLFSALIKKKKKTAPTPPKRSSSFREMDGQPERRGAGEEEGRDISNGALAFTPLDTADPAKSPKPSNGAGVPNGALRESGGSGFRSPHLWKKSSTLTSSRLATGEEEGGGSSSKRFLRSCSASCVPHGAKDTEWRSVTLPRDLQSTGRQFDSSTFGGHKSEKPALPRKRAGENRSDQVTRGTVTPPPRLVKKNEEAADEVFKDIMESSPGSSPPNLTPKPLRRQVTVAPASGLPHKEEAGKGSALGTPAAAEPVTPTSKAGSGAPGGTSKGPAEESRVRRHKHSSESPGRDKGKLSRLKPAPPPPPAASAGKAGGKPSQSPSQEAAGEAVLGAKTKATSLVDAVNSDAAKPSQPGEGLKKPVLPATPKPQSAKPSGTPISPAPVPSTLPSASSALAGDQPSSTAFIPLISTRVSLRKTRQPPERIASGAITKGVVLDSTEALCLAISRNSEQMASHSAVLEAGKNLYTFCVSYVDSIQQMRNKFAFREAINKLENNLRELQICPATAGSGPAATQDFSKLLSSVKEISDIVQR
Chain of PAK2 (Q13177 whole entry): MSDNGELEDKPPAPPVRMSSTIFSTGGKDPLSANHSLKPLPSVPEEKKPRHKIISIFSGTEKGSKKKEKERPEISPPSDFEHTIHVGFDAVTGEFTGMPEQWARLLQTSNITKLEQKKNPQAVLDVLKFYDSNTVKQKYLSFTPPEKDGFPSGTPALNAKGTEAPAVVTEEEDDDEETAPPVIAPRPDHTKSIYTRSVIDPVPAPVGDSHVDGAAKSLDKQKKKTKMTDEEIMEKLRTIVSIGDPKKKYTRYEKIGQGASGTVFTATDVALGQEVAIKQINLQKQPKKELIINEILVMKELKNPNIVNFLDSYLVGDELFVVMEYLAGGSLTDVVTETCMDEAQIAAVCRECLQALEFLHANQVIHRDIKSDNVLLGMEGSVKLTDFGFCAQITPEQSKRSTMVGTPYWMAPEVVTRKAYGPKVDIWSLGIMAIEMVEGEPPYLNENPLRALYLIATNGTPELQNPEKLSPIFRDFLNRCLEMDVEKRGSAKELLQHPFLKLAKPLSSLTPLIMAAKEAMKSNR

For `COc1ccc(Cl)c(S(=O)(=O)Nc2ccc(-c3nc(OC[C@H]4CNCCO4)c4c(C)n[nH]c4n3)cc2)c1` [290-R, reference compound], the remaining activity (usually the signal under treatment as a percentage of the control signal) at 1 µM in [1] turned out to be 24%; in test [2], 105%; in [3], 89%; in [4], 76%; in [5], 76%; in test [6], 88%. Moreover, the remaining activity at 1 µM came out at 88% in [7]; 88% in test [8]; 113% in test [9]; 91% in test [10]; 113% in test [11]; 94% in [12]. The remaining activity at 1 µM in [13] worked out at 93%; in test [14], 110%; in [15], 90%; in test [16] it was 102%; in test [17] it was 104%; in test [18], 95%. Also, the remaining activity at 1 µM in test [19] is 9%.

In the case of `Cc1ccc(F)c(S(=O)(=O)Nc2ccc(-c3nc(OC[C@H]4CNCCO4)c4cn[nH]c4n3)cc2)c1` [308-R, reference compound], the remaining activity at 1 µM in test [1] was 24%; in [2] it was 83%; in test [3] it was 98%; in test [4], 91%; in test [5] it was 82%; in test [6], 95%. Further, the remaining activity at 1 µM in test [7] was 91%; in [8], 96%; in [9], 94%; in test [10], 103%; in [11] it was 86%; in test [12], 119%. Moreover, the remaining activity at 1 µM in [13] stood at 88%; in test [14], 83%; in test [15] it was 53%; in test [16] it was 110%; in test [17], 131%; in [18] it was 53%. In addition, the remaining activity at 1 µM in [19] was 16%.

As to `Cc1ccc(F)c(S(=O)(=O)Nc2ccc(-c3nc(OC[C@H]4CN(CCCCCCOCCOCCOCC(=O)N[C@H](C(=O)N5C[C@H](O)C[C@H]5C(=O)NCc5ccc(-c6scnc6C)cc5)C(C)(C)C)CCO4)c4cn[nH]c4n3)cc2)c1` [SGK3-PROTAC1], the remaining activity at 1 µM in test [1] (1 µM) came to 120%; in test [2] (1 µM), 79%; in test [3] (1 µM) it was 124%; in [4] (1 µM), 89%; in [5] (1 µM), 105%; in test [6] (1 µM) it was 82%. The remaining activity at 1 µM was 106% in [7] (1 µM); 111% in test [8] (1 µM); 102% in test [9] (1 µM); 98% in test [10] (1 µM); 87% in test [11] (1 µM); 96% in test [12] (1 µM). The remaining activity at 1 µM in test [13] (1 µM) was found to be 98%; in [14] (1 µM), 88%; in test [15] (1 µM), 116%; in test [16] (1 µM) it was 103%; in test [17] (1 µM) it was 83%; in test [18] (1 µM) it was 106%. Moreover, in [19] (1 µM), the remaining activity at 1 µM came to 82%.

In the case of `Cc1ccc(F)c(S(=O)(=O)Nc2ccc(-c3nc(OC[C@H]4CN(CCCCCCOCCOCCOCC(=O)N[C@H](C(=O)N5C[C@@H](O)C[C@H]5C(=O)NCc5ccc(-c6scnc6C)cc5)C(C)(C)C)CCO4)c4cn[nH]c4n3)cc2)c1` [cisSGK3-PROTAC1], the remaining activity at 1 µM in [1] (1 µM) came out at 109%; in test [2] (1 µM) it was 77%; in [3] (1 µM) it was 116%; in test [4] (1 µM) it was 99%; in test [5] (1 µM) it was 101%; in test [6] (1 µM) it was 93%. Besides, the remaining activity at 1 µM came out at 111% in test [7] (1 µM); 112% in test [8] (1 µM); 112% in [9] (1 µM); 90% in [10] (1 µM); 105% in test [11] (1 µM); 104% in [12] (1 µM). Also, the remaining activity at 1 µM in test [13] (1 µM) is 105%; in [14] (1 µM), 105%; in test [15] (1 µM) it was 99%; in test [16] (1 µM), 94%; in [17] (1 µM), 87%; in test [18] (1 µM), 89%. Moreover, the remaining activity at 1 µM in test [19] (1 µM) worked out at 94%.

For the origin of these results see PMC6757289, “Design and Characterization of SGK3-PROTAC1, an Isoform Specific SGK3 Kinase PROTAC Degrader” (ACS Chemical Biology, 2019).
